Experiments:
[1] = tested on: cAMP-specific phosphodiesterase (PDE IV); experiment: Inhibition of the PDE IV enzyme derived from a dog trachea; assay type: biochemical; settings: test compound 10^−6 M; PDE IV from dog tracheal smooth muscle; substrate cAMP 1 μM
Outline: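 Enzyme purified from dog tracheal smooth muscle; [3H]cAMP substrate at 1 μM final in 50 mM BES pH 7.2, 1 mM MgCl2, 0.1 mg/ml soybean trypsin inhibitor, 30° C for 10–30 min, 1.7% DMSO final. After HCl stop, product converted to adenosine by 5′-nucleotidase, separated on DEAE-Sephadex and scintillation-counted.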

SMILES | Enzyme Inhibitory Activity (%, 10^−6 M) [1] [%] | melting point [°C]
COc1ccc(C(=O)Cc2c(Cl)cncc2Cl)c2c1OCC2C (racemic) [Compound 103, (±)-4-[2-(3,5-Dichloro-4-pyridyl)-1-oxoethyl]-7-methoxy-3-methyl-2,3-dihydrobenzofuran] | 88 | 99 to 104
COc1ccc(C(=O)Cc2ccncc2)c2c1OCC2C (racemic) [Compound 104, (±)-7-Methoxy-3-methyl-4-[1-oxo-2-(4-pyridyl)ethyl]-2,3-dihydrobenzofuran] | 48 | 111 to 117
CCCCc1cc2c(C(=O)Nc3c(Cl)cncc3Cl)ccc(OC)c2o1 [Compound 36, 2-Butyl-4-(3,5-dichloropyridin-4-ylaminocarbonyl)-7-methoxybenzofuran] | 87 | 160 to 164
COc1ccc(C(=O)Nc2c(Cl)cncc2Cl)c2cc(-c3ccncc3)oc12 [Compound 38, 4-[(3,5-Dichloro-4-pyridyl)aminocarbonyl]-7-methoxy-2-(4-pyridyl)benzofuran] | 89 | 289 to 290
COc1ccc(C(=O)Nc2c(Cl)cncc2Cl)c2cc(-c3ccccn3)oc12 [Compound 40, 4-[(3,5-Dichloro-4-pyridyl)aminocarbonyl]-7-methoxy-2-(2-pyridyl)benzofuran] | 89 | 263 to 264
COc1ccc(C(=O)Nc2c(Cl)cncc2Cl)c2c(-c3ccccc3)coc12 [Compound 42, 4-[(3,5-Dichloro-4-pyridyl)aminocarbonyl]-7-methoxy-3-phenylbenzofuran] | 73 | 177 to 179
CCOC(=O)Cc1coc2c(OC)ccc(C(=O)Nc3c(Cl)cncc3Cl)c12 [Compound 43, 3-Ethoxycarbonylmethyl-4-[(3,5-dichloro-4-pyridyl)-aminocarbonyl]-7-methoxybenzofuran] | 62 | 216 to 218
COc1ccc(CCc2c(Cl)cncc2Cl)c2c1OC(C)(C)C2 [Compound 45, 4-[2-(3,5-Dichloro-4-pyridyl)ethyl]-7-methoxy-2,2-dimethyl-2,3-dihydrobenzofuran] | 74 | 128 to 133
COc1ccc(CSc2ccncc2)c2c1OC(C)(C)C2 [Compound 48, 7-Methoxy-2,2-dimethyl-4-(4-pyridylthiomethyl)-2,3-dihydrobenzofuran] | 41 | 109 to 113
CCOC(=O)/C(=C/c1ccc(OC)c2c1CC(C)(C)O2)c1ccncc1 [Compound 87, (E)-4-[2-Ethoxycarbonyl-2-(4-pyridyl)ethenyl]-7-methoxy-2,2-dimethyl-2,3-dihydrobenzofuran] | 61 | 98 to 100
CCOC(=O)C(C#N)=Cc1ccc(OC)c2c1CC(C)(C)O2 [Compound 89, 4-(2-Cyano-2-ethoxycarbonylethenyl)-7-methoxy-2,2-dimethyl-2,3-dihydrobenzofuran] | 33 | 112 to 117
CCC1(CC)Cc2c(C(=O)Cc3c(Cl)cncc3Cl)ccc(OC)c2O1 [Compound 97, 4-[2-(3,5-Dichloro-4-pyridyl)-1-oxoethyl]-2,2-diethyl-7-methoxy-2,3-dihydrobenzofuran] | 92 | 164 to 166
COc1ccc(C(=O)Cc2c(Cl)cncc2Cl)c2c1OC1(CCCC1)C2 [Compound 99, 4-[2-(3,5-Dichloro-4-pyridyl)-1-oxoethyl]-7-methoxy-spiro[2,3-dihydrobenzofuran-2,1′-cyclopentane]] | 91 | 159 to 162
COc1ccc(C(=O)Nc2c(Cl)cncc2Cl)c2c1OC(C)(C)C=C2 [Compound 121, 5-(3,5-Dichloro-4-pyridylaminocarbonyl)-8-methoxy-2,2-dimethylbenzopyran] | 85 | 174 to 178

Source: patent publication US6716987B1, “Derivatives of benzofuran or benzodioxazole compounds” (Kyowa Hakko Kogyo Co., Ltd., priority 1995, dated 2004)
